These results are taken from US11845740B2, “Glutaminyl cyclase inhibitors and the use thereof in treatment of various diseases” (OBSCHESTVO S OGRANICHENNOI OTVETSTVENNOSTIYU …, priority 2017, dated 2023).

The IC50 is the point on the concentration scale where inhibition reaches its midpoint. In general, Ki refers to the equilibrium dissociation constant of an inhibitor or competing ligand from its target.

The target of the assay is recombinant intracellular human glutaminyl cyclase (Homo sapiens (Human), UniProt Q9NXS2). As to the kind of experiment: Enzymatic activity of human glutaminyl cyclase in vitro (fluorescent substrate Gln-bNA). In kind it is biochemical. The note with it: 25° C., 50 μM Gln-bNA, pH 8.0.
Sequence of recombinant intracellular human glutaminyl cyclase (Q9NXS2 whole entry): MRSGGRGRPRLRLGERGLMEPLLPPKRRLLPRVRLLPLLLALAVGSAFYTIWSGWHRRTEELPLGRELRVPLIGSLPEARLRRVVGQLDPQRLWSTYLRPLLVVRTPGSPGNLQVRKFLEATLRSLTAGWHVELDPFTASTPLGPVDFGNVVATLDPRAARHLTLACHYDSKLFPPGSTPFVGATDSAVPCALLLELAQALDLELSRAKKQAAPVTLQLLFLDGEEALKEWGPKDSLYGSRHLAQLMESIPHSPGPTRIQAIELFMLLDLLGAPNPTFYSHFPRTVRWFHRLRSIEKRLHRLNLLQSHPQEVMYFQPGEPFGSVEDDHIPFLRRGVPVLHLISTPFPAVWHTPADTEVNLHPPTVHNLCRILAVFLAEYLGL

Protocol: The reaction mixture having a volume of 100-μl has contained 50 μM of fluorogenic substrate; ˜0.2 units of human pyroglutaminyl aminopeptidase (1 unit is defined as an amount hydrolyzing 1 micromole of pGlu-bNA per minute), and an aliquot of the recombinant intracellular human glutaminyl cyclase (gQC) in 50 mM trisaminomethane-HCl and 5% glycerol, a pH is 8.0.
The further course of the reaction was monitored spectrophotometrically (the wavelength of the excitation and emission were 320 and 410 nm). The enzyme activity was determined by an amount of the released 2-naphthyl amide (bNA), calculated from the calibration curve. The IC50 values were calculated using nonlinear regression of “inhibitor concentration”-“enzymatic activity” curve.

As to `O=C(NCCc1cnc[nH]1)NCCc1cnc[nH]1` [Compound III, N,N′-bis[2-(1H-imidazol-4-yl)ethyl]carbamide], the IC50 was 3500 nM and the Ki was 2000 nM.
